Literature values in PMC9502836, “Zika Virus Inhibitors Based on a 1,3-Disubstituted 1H-Pyrazolo[3,4-d]pyrimidine-amine Scaffold” (Molecules, 2022).

Columns and labels:
Huh7 cells = tested on: Huh7 cells; parameters: method as in PMID 34206327; conditions: cited from earlier work
ZIKV = tested on: ZIKV; parameters: method as in PMID 34206327; conditions: Huh7 cells, cited from earlier work; for EC50: read-out: Titer Reduction Assay EC50
luciferase reporter ZIKV = conditions: Huh7 cells, cited from earlier work

SMILES | CC50 (Huh7 cells) | EC50 (ZIKV) | ZIKV Reporter Assay Inhibition (%) at 10 µM (luciferase reporter ZIKV; 10 µM) | EC50 (luciferase reporter ZIKV) | ZIKV Reporter Assay Viability (%) at 10 µM (Huh7 cells; 10 µM) | Titer Reduction Assay % at 8.5 µM (ZIKV; 8.5 µM)
O=[N+]([O-])c1ccc(Cn2ccc3c(NCc4cccc(Cl)c4)ncnc32)cc1 [Compound 1] | 20 µM | 5.2 µM | – | – | – | –
Cc1cc(N)c2cc(NC(=O)Nc3ccc4nc(C)cc(N)c4c3)ccc2n1 [NSC 12155] | 23 µM | 7.34 µM | 68% | 2.18 µM | 70% | 72%
